# Assay results from paper PMC7265341, “Quantifying CDK inhibitor selectivity in live cells” (Nature Communications, 2020).
# pIC50: −log10 of the molar value. Read-outs that look alike come from different tables or passages of the source.
# Key:
# CDK7 = CDK7 (Homo sapiens, UniProt P50613); assay: NanoBRET live-cell target engagement, NanoLuc-CDK7 in HEK-293; assay type: binding; settings: read-out: CDK7 Inhibition at 10µM (%), 10µM
# CDK11B/Cyclin L2 = CDK11B/Cyclin L2 (Homo sapiens, UniProt P21127); assay: NanoBRET live-cell target engagement, CDK11B-NanoLuc/Cyclin L2 in HEK-293; assay type: binding; settings: 10µM, read-out: CDK11b/L2 Inhibition at 10µM (%)
# CDK20/Cyclin H = CDK20/Cyclin H (Homo sapiens, UniProt Q8IZL9); assay: NanoBRET live-cell target engagement, NanoLuc-CDK20/Cyclin H in HEK-293; assay type: binding; settings: 10µM, read-out: CDK20/H Inhibition at 10µM (%)
# CDK2/Cyclin E1 = CDK2/Cyclin E1 (Homo sapiens, UniProt P24941); assay: NanoBRET live-cell target engagement, CDK2-NanoLuc/Cyclin E1 in HEK-293; assay type: binding; settings: 10µM, read-out: CDK2/E1 Inhibition at 10µM (%)
# CDK12/Cyclin K = CDK12/Cyclin K (Homo sapiens, UniProt Q9NYV4); assay: NanoBRET live-cell target engagement, CDK12-NanoLuc/Cyclin K in HEK-293; assay type: binding; settings: for inhibition at 10 µM: read-out: CDK12/K Inhibition at 10µM (%)
# CDK17/Cyclin Y = CDK17/Cyclin Y (Homo sapiens, UniProt Q00537); assay: NanoBRET live-cell target engagement, CDK17-NanoLuc/Cyclin Y in HEK-293; assay type: binding; settings: 10µM, read-out: CDK17/Y Inhibition at 10µM (%)
# CDK1/Cyclin E1 = CDK1/Cyclin E1 (Homo sapiens, UniProt P06493); assay: NanoBRET live-cell target engagement, CDK1-NanoLuc/Cyclin E1 in HEK-293; assay type: binding; settings: 10µM, read-out: CDK1/E1 Inhibition at 10µM (%)
# CDK5/CDK5R1 = CDK5/CDK5R1 (Homo sapiens, UniProt Q00535); assay: NanoBRET live-cell target engagement, CDK5-NanoLuc/CDK5R1 in HEK-293; assay type: binding; settings: 10µM, read-out: CDK5/CDK5R1 Inhibition at 10µM (%)
# CDK3/Cyclin E1 = CDK3/Cyclin E1 (Homo sapiens, UniProt Q00526); assay: NanoBRET live-cell target engagement, CDK3-NanoLuc/Cyclin E1 in HEK-293; assay type: binding; settings: 10µM, read-out: CDK3/E1 Inhibition at 10µM (%)
# CDK16/Cyclin Y = CDK16/Cyclin Y (Homo sapiens, UniProt Q00536); assay: NanoBRET live-cell target engagement, CDK16-NanoLuc/Cyclin Y in HEK-293; assay type: binding; settings: 10µM, read-out: CDK16/Y Inhibition at 10µM (%)
# CDK4/Cyclin D1 = CDK4/Cyclin D1 (Homo sapiens, UniProt P11802); assay: NanoBRET live-cell target engagement, NanoLuc-CDK4/Cyclin D1 in HEK-293; assay type: binding; settings: 10µM, read-out: CDK4/D1 Inhibition at 10µM (%)
# CDK8/Cyclin C = CDK8/Cyclin C (Homo sapiens, UniProt P49336); assay: NanoBRET live-cell target engagement, NanoLuc-CDK8/Cyclin C in HEK-293; assay type: binding; settings: 10µM, read-out: CDK8/C Inhibition at 10µM (%)
# CDK11A/Cyclin L2 = target: T1, CDK11A/Cyclin L2 (Homo sapiens, UniProt Q9UQ88); assay: NanoBRET live-cell target engagement, CDK11A-NanoLuc/Cyclin L2 in HEK-293; assay type: binding; settings: 10µM, read-out: CDK11a/L2 Inhibition at 10µM (%)
# T1 sequence (Q9UQ88 1-783): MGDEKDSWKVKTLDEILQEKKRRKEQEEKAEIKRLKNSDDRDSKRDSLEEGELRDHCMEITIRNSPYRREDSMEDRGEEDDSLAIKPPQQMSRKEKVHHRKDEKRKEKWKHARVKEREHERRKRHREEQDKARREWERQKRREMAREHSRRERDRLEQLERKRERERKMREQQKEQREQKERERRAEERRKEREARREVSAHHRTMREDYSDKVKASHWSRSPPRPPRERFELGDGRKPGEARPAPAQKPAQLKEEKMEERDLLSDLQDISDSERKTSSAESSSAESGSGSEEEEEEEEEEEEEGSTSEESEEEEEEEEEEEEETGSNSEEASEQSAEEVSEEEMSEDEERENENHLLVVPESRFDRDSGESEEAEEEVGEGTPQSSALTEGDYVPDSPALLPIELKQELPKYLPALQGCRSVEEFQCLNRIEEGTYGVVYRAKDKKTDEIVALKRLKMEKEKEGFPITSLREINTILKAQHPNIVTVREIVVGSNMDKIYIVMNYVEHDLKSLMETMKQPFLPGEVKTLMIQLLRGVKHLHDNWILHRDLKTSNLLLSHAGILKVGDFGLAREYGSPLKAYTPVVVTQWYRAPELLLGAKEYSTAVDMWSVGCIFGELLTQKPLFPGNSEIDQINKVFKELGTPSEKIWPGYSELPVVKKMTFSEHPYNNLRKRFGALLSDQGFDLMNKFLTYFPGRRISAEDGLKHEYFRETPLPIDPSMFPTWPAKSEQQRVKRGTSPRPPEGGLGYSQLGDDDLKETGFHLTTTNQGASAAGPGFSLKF
# CDK19/Cyclin C = CDK19/Cyclin C (Homo sapiens, UniProt Q9BWU1); assay: NanoBRET live-cell target engagement, NanoLuc-CDK19/Cyclin C in HEK-293; settings: read-out: CDK19/C Inhibition at 10µM (%), 10µM
# CDK9/Cyclin K = CDK9/Cyclin K (Homo sapiens, UniProt P50750); assay: NanoBRET live-cell target engagement, NanoLuc-CDK9/Cyclin K in HEK-293; assay type: binding; settings: 10µM, read-out: CDK9/K Inhibition at 10µM (%)
# CDK6/Cyclin D1 = CDK6/Cyclin D1 (Homo sapiens, UniProt Q00534); assay: NanoBRET live-cell target engagement, NanoLuc-CDK6/Cyclin D1 in HEK-293; assay type: binding; settings: 10µM, read-out: CDK6/D1 Inhibition at 10µM (%)
# CDK18/Cyclin Y = CDK18/Cyclin Y (Homo sapiens, UniProt Q07002); assay: NanoBRET live-cell target engagement, CDK18-NanoLuc/Cyclin Y in HEK-293; assay type: binding; settings: 10µM, read-out: CDK18/Y Inhibition at 10µM (%)
# CDK15/Cyclin Y = CDK15/Cyclin Y (Homo sapiens, UniProt Q96Q40); assay: NanoBRET live-cell target engagement, NanoLuc-CDK15/Cyclin Y in HEK-293; assay type: binding; settings: 10µM, read-out: CDK15/Y Inhibition at 10µM (%)
# CDK13/Cyclin K = CDK13/Cyclin K (Homo sapiens, UniProt Q14004); assay: NanoBRET live-cell target engagement, CDK13-NanoLuc/Cyclin K in HEK-293; assay type: binding; settings: for inhibition at 10 µM: read-out: CDK13/K Inhibition at 10µM (%)
# Chain of CDK17/Cyclin Y (Q00537 whole entry): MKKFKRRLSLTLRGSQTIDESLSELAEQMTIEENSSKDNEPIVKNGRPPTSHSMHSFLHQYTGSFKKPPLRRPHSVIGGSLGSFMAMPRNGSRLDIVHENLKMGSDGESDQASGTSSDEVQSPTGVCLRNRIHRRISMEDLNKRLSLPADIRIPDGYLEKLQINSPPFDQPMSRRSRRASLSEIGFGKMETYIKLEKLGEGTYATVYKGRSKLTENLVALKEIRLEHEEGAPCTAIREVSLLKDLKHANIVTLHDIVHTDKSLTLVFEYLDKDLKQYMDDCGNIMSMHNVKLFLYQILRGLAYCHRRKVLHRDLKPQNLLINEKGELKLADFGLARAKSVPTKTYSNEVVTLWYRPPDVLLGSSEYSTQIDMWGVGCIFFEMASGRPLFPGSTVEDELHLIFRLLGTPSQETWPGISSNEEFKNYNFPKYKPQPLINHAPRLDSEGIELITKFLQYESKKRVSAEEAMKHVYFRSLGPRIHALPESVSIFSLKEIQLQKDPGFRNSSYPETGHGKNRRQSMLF
# Chain of CDK17/Cyclin Y (Q8ND76 whole entry partner): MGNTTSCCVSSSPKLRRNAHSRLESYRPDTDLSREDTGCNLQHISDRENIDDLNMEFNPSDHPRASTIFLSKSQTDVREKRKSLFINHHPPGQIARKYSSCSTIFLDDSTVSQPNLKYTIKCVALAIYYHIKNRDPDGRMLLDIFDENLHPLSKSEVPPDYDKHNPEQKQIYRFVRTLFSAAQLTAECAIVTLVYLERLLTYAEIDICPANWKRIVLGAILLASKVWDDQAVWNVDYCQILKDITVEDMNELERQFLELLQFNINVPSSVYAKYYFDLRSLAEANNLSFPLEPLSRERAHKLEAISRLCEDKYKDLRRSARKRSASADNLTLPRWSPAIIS
# Chain of CDK7 (P50613 whole entry): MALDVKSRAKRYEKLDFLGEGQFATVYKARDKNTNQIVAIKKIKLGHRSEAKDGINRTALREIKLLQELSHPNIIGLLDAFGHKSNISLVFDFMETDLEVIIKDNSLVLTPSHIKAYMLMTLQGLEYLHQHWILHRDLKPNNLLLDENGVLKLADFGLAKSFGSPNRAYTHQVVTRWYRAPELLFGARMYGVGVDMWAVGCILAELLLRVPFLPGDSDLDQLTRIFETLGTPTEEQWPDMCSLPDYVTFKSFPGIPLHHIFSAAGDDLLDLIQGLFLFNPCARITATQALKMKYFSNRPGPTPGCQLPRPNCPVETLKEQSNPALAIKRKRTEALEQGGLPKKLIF
# Chain of CDK4/Cyclin D1 (P11802 whole entry): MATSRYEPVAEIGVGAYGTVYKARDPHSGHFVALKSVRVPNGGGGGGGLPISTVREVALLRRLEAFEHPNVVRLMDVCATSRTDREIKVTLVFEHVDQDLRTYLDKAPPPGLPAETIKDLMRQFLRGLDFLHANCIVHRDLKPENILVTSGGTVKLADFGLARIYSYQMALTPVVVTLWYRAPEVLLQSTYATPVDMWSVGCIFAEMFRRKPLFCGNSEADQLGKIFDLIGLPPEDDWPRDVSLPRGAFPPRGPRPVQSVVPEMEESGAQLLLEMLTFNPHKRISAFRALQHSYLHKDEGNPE
# Chain of CDK4/Cyclin D1 (P24385 whole entry partner): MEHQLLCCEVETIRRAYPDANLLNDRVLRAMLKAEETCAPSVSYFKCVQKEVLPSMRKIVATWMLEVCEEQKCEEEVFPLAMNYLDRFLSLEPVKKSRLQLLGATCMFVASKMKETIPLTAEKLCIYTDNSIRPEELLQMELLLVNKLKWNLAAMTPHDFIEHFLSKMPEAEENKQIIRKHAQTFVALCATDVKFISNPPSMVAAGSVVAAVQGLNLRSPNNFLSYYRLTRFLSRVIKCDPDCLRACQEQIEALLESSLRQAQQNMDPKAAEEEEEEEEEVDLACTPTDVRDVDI
# Chain of CDK3/Cyclin E1 (Q00526 whole entry): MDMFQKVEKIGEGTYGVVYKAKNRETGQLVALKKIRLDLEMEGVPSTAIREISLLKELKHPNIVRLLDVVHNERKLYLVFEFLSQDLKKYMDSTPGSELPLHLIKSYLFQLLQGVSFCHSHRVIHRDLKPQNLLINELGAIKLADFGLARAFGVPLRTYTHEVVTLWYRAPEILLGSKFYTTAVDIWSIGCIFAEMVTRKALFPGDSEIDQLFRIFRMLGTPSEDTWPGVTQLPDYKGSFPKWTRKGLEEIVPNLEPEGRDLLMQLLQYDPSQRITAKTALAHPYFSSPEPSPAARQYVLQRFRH
# Chain of CDK3/Cyclin E1 (P24864 whole entry partner): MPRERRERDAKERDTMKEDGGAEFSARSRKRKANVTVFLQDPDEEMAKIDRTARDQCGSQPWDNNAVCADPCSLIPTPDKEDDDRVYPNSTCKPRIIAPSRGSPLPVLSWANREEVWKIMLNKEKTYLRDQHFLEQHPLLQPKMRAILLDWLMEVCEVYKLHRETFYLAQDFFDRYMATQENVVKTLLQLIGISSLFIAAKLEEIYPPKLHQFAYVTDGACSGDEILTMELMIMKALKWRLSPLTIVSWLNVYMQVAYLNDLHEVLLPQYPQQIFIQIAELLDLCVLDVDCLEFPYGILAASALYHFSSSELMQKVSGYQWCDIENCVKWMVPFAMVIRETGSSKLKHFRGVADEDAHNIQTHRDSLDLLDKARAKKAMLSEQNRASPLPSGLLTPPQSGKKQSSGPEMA
# Chain of CDK15/Cyclin Y (Q96Q40 whole entry): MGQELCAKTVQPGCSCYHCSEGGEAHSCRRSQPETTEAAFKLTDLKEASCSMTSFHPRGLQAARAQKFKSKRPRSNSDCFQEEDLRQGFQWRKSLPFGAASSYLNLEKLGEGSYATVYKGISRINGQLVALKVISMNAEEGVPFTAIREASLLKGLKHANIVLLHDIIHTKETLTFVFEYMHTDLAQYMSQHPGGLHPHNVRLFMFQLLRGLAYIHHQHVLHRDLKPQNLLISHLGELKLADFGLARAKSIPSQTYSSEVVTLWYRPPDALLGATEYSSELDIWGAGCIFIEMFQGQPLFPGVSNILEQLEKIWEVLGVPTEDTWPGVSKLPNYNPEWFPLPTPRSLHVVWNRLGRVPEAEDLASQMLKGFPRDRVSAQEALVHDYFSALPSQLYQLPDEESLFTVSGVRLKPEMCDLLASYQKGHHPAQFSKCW
# Chain of CDK15/Cyclin Y (Q8ND76 whole entry partner): as the sequence (Q8ND76 whole entry partner) above
# Chain of CDK6/Cyclin D1 (Q00534 whole entry): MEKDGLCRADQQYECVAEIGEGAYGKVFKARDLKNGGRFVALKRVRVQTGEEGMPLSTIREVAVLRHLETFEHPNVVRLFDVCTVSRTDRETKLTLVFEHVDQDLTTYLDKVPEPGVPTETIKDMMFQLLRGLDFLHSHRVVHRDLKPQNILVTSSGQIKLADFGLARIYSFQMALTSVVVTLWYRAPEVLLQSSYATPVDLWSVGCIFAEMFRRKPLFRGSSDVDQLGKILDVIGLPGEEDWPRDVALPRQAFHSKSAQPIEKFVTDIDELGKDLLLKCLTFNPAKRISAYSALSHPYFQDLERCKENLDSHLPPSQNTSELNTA
# Chain of CDK6/Cyclin D1 (P24385 whole entry partner): as the sequence (P24385 whole entry partner) above
# Chain of CDK19/Cyclin C (Q9BWU1 whole entry): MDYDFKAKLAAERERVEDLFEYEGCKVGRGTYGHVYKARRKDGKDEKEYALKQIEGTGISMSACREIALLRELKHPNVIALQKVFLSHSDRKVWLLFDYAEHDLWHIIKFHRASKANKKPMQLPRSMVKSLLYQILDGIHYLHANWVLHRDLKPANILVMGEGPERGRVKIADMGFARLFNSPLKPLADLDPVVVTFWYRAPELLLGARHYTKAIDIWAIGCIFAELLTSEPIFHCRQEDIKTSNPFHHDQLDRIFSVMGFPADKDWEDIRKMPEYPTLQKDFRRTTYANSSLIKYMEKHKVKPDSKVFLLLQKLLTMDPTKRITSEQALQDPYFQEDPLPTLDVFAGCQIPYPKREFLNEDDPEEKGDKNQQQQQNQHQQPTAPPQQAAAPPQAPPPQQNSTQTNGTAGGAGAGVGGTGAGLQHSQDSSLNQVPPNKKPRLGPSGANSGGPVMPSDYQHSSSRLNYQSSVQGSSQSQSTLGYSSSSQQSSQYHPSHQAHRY
# Chain of CDK19/Cyclin C (P24863 whole entry partner): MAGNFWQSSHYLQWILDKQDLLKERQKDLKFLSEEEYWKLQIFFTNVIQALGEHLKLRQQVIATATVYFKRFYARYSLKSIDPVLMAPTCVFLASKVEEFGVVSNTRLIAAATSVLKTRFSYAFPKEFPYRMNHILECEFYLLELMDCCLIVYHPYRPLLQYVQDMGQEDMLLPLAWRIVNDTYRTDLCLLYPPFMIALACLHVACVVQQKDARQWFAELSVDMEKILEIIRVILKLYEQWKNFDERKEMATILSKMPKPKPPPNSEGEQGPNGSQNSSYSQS
# Chain of CDK18/Cyclin Y (Q07002 whole entry): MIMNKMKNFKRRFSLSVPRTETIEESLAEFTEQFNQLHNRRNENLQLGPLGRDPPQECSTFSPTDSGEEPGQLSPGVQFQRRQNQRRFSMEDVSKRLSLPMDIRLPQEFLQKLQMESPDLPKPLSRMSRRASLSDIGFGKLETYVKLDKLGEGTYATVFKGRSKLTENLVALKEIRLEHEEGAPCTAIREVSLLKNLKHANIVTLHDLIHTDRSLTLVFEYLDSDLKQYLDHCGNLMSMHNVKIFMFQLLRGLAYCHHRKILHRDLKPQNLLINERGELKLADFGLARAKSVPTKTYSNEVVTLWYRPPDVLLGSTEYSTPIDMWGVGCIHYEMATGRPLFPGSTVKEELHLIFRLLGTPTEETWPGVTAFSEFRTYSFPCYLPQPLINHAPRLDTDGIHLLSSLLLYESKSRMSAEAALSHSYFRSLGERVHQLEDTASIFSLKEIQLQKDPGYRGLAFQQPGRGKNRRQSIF
# Chain of CDK18/Cyclin Y (Q8ND76 whole entry partner): as the sequence (Q8ND76 whole entry partner) above
compound,measurement,setting,value
CN(C)C/C=C/C(=O)Nc1ccc(C(=O)N2CCC[C@@H](Nc3ncc(Cl)c(-c4c[nH]c5ccccc45)n3)C2)cc1 [THZ531],inhibition at 10 µM,CDK7; average of experiments,78.1%
same,inhibition at 10 µM,CDK7; independent experiment 1,74.8%
same,inhibition at 10 µM,CDK7; independent experiment 2,81.5%
same,inhibition at 10 µM,CDK11B/Cyclin L2; average of experiments,32.4%
same,inhibition at 10 µM,CDK11B/Cyclin L2; independent experiment 1,30%
same,inhibition at 10 µM,CDK11B/Cyclin L2; independent experiment 2,34.7%
same,inhibition at 10 µM,CDK20/Cyclin H; independent experiment 1,30.9%
same,inhibition at 10 µM,CDK20/Cyclin H; independent experiment 2,52.4%
same,inhibition at 10 µM,CDK2/Cyclin E1; average of experiments,52.7%
same,inhibition at 10 µM,CDK2/Cyclin E1; independent experiment 1,46.1%
same,inhibition at 10 µM,CDK2/Cyclin E1; independent experiment 2,59.3%
same,inhibition at 10 µM,CDK12/Cyclin K; average of experiments,65.1%
same,inhibition at 10 µM,CDK12/Cyclin K; independent experiment 1,75.9%
same,inhibition at 10 µM,CDK12/Cyclin K; independent experiment 2,54.3%
same,pIC50,"CDK12/Cyclin K; independent experiment 1, read-out: CDK12/K IC50",6.27
same,pIC50,"CDK12/Cyclin K; independent experiment 2, read-out: CDK12/K IC50",6.00
same,pIC50,"CDK12/Cyclin K; live HEK-293, 2 h, mean ± S.E.M. (n=3) or mean (n=2), read-out: IC50 for CDK/cyclin complexes, CDK12/K",6.11
same,pIC50,"CDK12/Cyclin K; live HEK-293, read-out: CDK12 engagement potency",> 6.00
same,CDK12 occupancy at 10 µM,"CDK12/Cyclin K; primary screen, live HEK-293",occupied
same,receptor occupancy at 10 µM,CDK12/Cyclin K; read-out: CDK12 occupancy at 10 µM,~50%
same,inhibition at 10 µM,CDK17/Cyclin Y; average of experiments,63%
same,inhibition at 10 µM,CDK17/Cyclin Y; independent experiment 1,73.4%
same,inhibition at 10 µM,CDK17/Cyclin Y; independent experiment 2,52.6%
same,inhibition at 10 µM,CDK1/Cyclin E1; average of experiments,61.4%
same,inhibition at 10 µM,CDK1/Cyclin E1; independent experiment 1,48.6%
same,inhibition at 10 µM,CDK1/Cyclin E1; independent experiment 2,74.1%
same,inhibition at 10 µM,CDK5/CDK5R1; average of experiments,45.3%
same,inhibition at 10 µM,CDK5/CDK5R1; independent experiment 1,30.8%
same,inhibition at 10 µM,CDK5/CDK5R1; independent experiment 2,59.9%
same,inhibition at 10 µM,CDK3/Cyclin E1; average of experiments,61.1%
same,inhibition at 10 µM,CDK3/Cyclin E1; independent experiment 1,57.1%
same,inhibition at 10 µM,CDK3/Cyclin E1; independent experiment 2,65.2%
same,inhibition at 10 µM,CDK16/Cyclin Y; independent experiment 1,75.1%
same,inhibition at 10 µM,CDK16/Cyclin Y; independent experiment 2,49.9%
same,inhibition at 10 µM,CDK4/Cyclin D1; average of experiments,54.6%
same,inhibition at 10 µM,CDK4/Cyclin D1; independent experiment 1,47.7%
same,inhibition at 10 µM,CDK4/Cyclin D1; independent experiment 2,61.5%
same,inhibition at 10 µM,CDK8/Cyclin C; average of experiments,41%
same,inhibition at 10 µM,CDK8/Cyclin C; independent experiment 1,30.9%
same,inhibition at 10 µM,CDK8/Cyclin C; independent experiment 2,51.2%
same,inhibition at 10 µM,CDK11A/Cyclin L2; average of experiments,46.9%
same,inhibition at 10 µM,CDK11A/Cyclin L2; independent experiment 1,27.8%
same,inhibition at 10 µM,CDK11A/Cyclin L2; independent experiment 2,65.9%
same,inhibition at 10 µM,CDK19/Cyclin C; average of experiments,55.3%
same,inhibition at 10 µM,CDK19/Cyclin C; independent experiment 1,58.1%
same,inhibition at 10 µM,CDK19/Cyclin C; independent experiment 2,52.6%
same,inhibition at 10 µM,CDK9/Cyclin K; average of experiments,81.1%
same,inhibition at 10 µM,CDK9/Cyclin K; independent experiment 1,78.5%
same,inhibition at 10 µM,CDK9/Cyclin K; independent experiment 2,83.8%
same,inhibition at 10 µM,CDK6/Cyclin D1; average of experiments,36.6%
same,inhibition at 10 µM,CDK6/Cyclin D1; independent experiment 1,32%
same,inhibition at 10 µM,CDK6/Cyclin D1; independent experiment 2,41.3%
same,inhibition at 10 µM,CDK18/Cyclin Y; average of experiments,64.6%
same,inhibition at 10 µM,CDK18/Cyclin Y; independent experiment 1,71.7%
same,inhibition at 10 µM,CDK18/Cyclin Y; independent experiment 2,57.6%
same,inhibition at 10 µM,CDK15/Cyclin Y; average of experiments,80.5%
same,inhibition at 10 µM,CDK15/Cyclin Y; independent experiment 1,75.6%
same,inhibition at 10 µM,CDK15/Cyclin Y; independent experiment 2,85.5%
same,inhibition at 10 µM,CDK13/Cyclin K; average of experiments,53.1%
same,inhibition at 10 µM,CDK13/Cyclin K; independent experiment 1,48.6%
same,inhibition at 10 µM,CDK13/Cyclin K; independent experiment 2,57.6%
same,pIC50,"CDK13/Cyclin K; live HEK-293, response to reviewers, read-out: CDK13 IC50 (follow up)",~5.70
same,CDK13 occupancy at 10 µM,"CDK13/Cyclin K; primary screen, live HEK-293",occupied
same,receptor occupancy at 10 µM,"CDK13/Cyclin K; primary screen, live HEK-293",~50%
